19 compounds from patent publication US12084472B2 (Ardelyx, Inc., priority 2015, dated 2024) can be followed below.

SMILES strings stand for the structures.

The experiment addresses T1, human TGR5 (Homo sapiens, UniProt Q8TDU6).
T1 construct: expressed in transfected cells; host or cells: HEK293
T1 sequence (Q8TDU6 1-330): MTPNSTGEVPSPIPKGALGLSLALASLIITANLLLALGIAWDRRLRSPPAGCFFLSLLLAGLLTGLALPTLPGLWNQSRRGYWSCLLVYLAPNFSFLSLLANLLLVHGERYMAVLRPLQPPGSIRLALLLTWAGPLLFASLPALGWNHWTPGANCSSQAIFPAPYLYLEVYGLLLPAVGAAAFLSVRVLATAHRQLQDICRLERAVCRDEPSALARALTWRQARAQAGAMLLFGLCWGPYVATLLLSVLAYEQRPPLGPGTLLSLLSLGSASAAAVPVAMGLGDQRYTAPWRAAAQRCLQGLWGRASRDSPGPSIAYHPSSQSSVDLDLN
Briefly: Cell-based TGR5 assay (cAMP generation, HTRF). Conditions: HEK293 cells stably transfected with human TGR5; cAMP by HTRF; 30 minutes at 37° C.; read-out: pEC50 Human TGR5 (converted). In short, it runs like this: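 First, compounds in 3-fold serial dilution were placed in HBSS with 10 mM HEPES pH 7.4 and 0.5 mM IBMX. Next, human TGR5-expressing HEK293 cells were added and incubated 30 min at 37° C. Finally, cAMP was detected by HTRF and pEC50 derived by logistic fitting.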
On the technique in general: Time-resolved FRET reads energy transfer from a long-lived donor to a nearby acceptor.
As for `CC(CCCN(CCCCO)C(=O)[C@@H](O)[C@@H](O)[C@H](O)[C@@H](O)CO)c1ccc(Cl)c(CNC2(c3cnccc3-c3ccccc3OC3CC3)CC2)c1` (stereo partly drawn) [Compound I-283, (2S,3S,4R,5S)-N-(4-{4-chloro-3-[({1-[4-(2-cyclopropoxyphenyl)pyridin-3-yl]cyclopropyl}amino)methyl]phenyl}pentyl)-2,3,4,5,6-pentahydroxy-N-(4-hydroxybutyl)hexanamide], the EC50 is less than 100 nM.

On to `COCCCN(CCCC(C)c1ccc(Cl)c(CNC2(c3cnccc3-c3ccccc3OC3CC3)CC2)c1)C(=O)[C@@H](O)[C@@H](O)[C@H](O)[C@@H](O)CO` (stereo partly drawn) [Compound I-284, (2S,3S,4R,5S)-N-(4-{4-chloro-3-[({1-[4-(2-cyclopropoxyphenyl)pyridin-3-yl]cyclopropyl}amino)methyl]phenyl}pentyl)-2,3,4,5,6-pentahydroxy-N-(3-methoxypropyl)hexanamide], for which the EC50 was less than 100 nM.

`CC(CCCN(C(=O)[C@@H](O)[C@@H](O)[C@H](O)[C@@H](O)CO)C1CCOCC1)c1ccc(Cl)c(CNC2(c3cnccc3-c3ccccc3OC3CC3)CC2)c1` (stereo partly drawn) [Compound I-285, (2S,3S,4R,5S)-N-(4-{4-chloro-3-[({1-[4-(2-cyclopropoxyphenyl)pyridin-3-yl]cyclopropyl}amino)methyl]phenyl}pentyl)-2,3,4,5,6-pentahydroxy-N-(oxan-4-yl)hexanamide]: the EC50 is 126 to 1000 nM.

As to `CC(CCCN(CCOCCO)C(=O)[C@@H](O)[C@@H](O)[C@H](O)[C@@H](O)CO)c1ccc(Cl)c(CNC2(c3cnccc3-c3ccccc3OC3CC3)CC2)c1` (stereo partly drawn) [Compound I-286, (2S,3S,4R,5S)-N-(4-{4-chloro-3-[({1-[4-(2-cyclopropoxyphenyl)pyridin-3-yl]cyclopropyl}amino)methyl]phenyl}pentyl)-2,3,4,5,6-pentahydroxy-N-[2-(2-hydroxyethoxy)ethyl]hexanamide], the EC50 is less than 100 nM.

With `CC(CCCN(CC1CCOCC1)C(=O)[C@@H](O)[C@@H](O)[C@H](O)[C@@H](O)CO)c1ccc(Cl)c(CNC2(c3cnccc3-c3ccccc3OC3CC3)CC2)c1` (stereo partly drawn) [Compound I-287, (2S,3S,4R,5S)-N-(4-{4-chloro-3-[({1-[4-(2-cyclopropoxyphenyl)pyridin-3-yl]cyclopropyl}amino)methyl]phenyl}pentyl)-2,3,4,5,6-pentahydroxy-N-(oxan-4-ylmethyl)hexanamide], the EC50 was less than 100 nM.

Turning to `CC(CCCCN(CCOCCO)C(=O)[C@@H](O)[C@@H](O)[C@H](O)[C@@H](O)CO)c1ccc(Cl)c(CNC2(c3cnccc3-c3ccccc3OC3CC3)CC2)c1` (stereo partly drawn) [Compound I-288, (2S,3S,4R,5S)-N-(5-{4-chloro-3-[({1-[4-(2-cyclopropoxyphenyl)pyridin-3-yl]cyclopropyl}amino)methyl]phenyl}hexyl)-2,3,4,5,6-pentahydroxy-N-[2-(2-hydroxyethoxy)ethyl]hexanamide], the EC50 was less than 100 nM.

As to `CC(CCCN(CCS(C)(=O)=O)C(=O)[C@@H](O)[C@@H](O)[C@H](O)[C@@H](O)CO)c1ccc(Cl)c(CNC2(c3cnccc3-c3ccccc3OC3CC3)CC2)c1` (stereo partly drawn) [Compound I-289, (2S,3S,4R,5S)-N-(4-{4-chloro-3-[({1-[4-(2-cyclopropoxyphenyl)pyridin-3-yl]cyclopropyl}amino)methyl]phenyl}pentyl)-2,3,4,5,6-pentahydroxy-N-(2-methanesulfonylethyl)hexanamide], the EC50 is less than 100 nM.

As for `CC(=O)NCCCCN(CCCC(C)c1ccc(Cl)c(CNC2(c3cnccc3-c3ccccc3OC3CC3)CC2)c1)C(=O)[C@@H](O)[C@@H](O)[C@H](O)[C@@H](O)CO` (stereo partly drawn) [Compound I-290, (2S,3S,4R,5S)-N-(4-{4-chloro-3-[({1-[4-(2-cyclopropoxyphenyl)pyridin-3-yl]cyclopropyl}amino)methyl]phenyl}pentyl)-N-(4-acetamidobutyl)-2,3,4,5,6-pentahydroxyhexanamide], the EC50 is less than 100 nM.

In the case of `CC(CCCCN(CCS(C)(=O)=O)C(=O)[C@@H](O)[C@@H](O)[C@H](O)[C@@H](O)CO)c1ccc(Cl)c(CNC2(c3cnccc3-c3ccccc3OC3CC3)CC2)c1` (stereo partly drawn) [Compound I-291, (2S,3S,4R,5S)-N-(5-{4-chloro-3-[({1-[4-(2-cyclopropoxyphenyl)pyridin-3-yl]cyclopropyl}amino)methyl]phenyl}hexyl)-2,3,4,5,6-pentahydroxy-N-(2-methanesulfonylethyl)hexanamide], the EC50 is less than 100 nM.

`CC(CCCN(CCCS(C)(=O)=O)C(=O)[C@@H](O)[C@@H](O)[C@H](O)[C@@H](O)CO)c1ccc(Cl)c(CNC2(c3cnccc3-c3ccccc3OC3CC3)CC2)c1` (stereo partly drawn) [Compound I-292, (2S,3S,4R,5S)-N-(4-{4-chloro-3-[({1-[4-(2-cyclopropoxyphenyl)pyridin-3-yl]cyclopropyl}amino)methyl]phenyl}pentyl)-2,3,4,5,6-pentahydroxy-N-(3-methanesulfonylpropyl)hexanamide]: the EC50 is less than 100 nM.

With `CCS(=O)(=O)CCN(CCCC(C)c1ccc(Cl)c(CNC2(c3cnccc3-c3ccccc3OC3CC3)CC2)c1)C(=O)[C@@H](O)[C@@H](O)[C@H](O)[C@@H](O)CO` (stereo partly drawn) [Compound I-293, (2S,3S,4R,5S)-N-(4-{4-chloro-3-[({1-[4-(2-cyclopropoxyphenyl)pyridin-3-yl]cyclopropyl}amino)methyl]phenyl}pentyl)-N-[2-(ethanesulfonyl)ethyl]-2,3,4,5,6-pentahydroxyhexanamide], the EC50 is less than 100 nM.

With `CC(CCCN(CCCN1CCCC1=O)C(=O)[C@@H](O)[C@@H](O)[C@H](O)[C@@H](O)CO)c1ccc(Cl)c(CNC2(c3cnccc3-c3ccccc3OC3CC3)CC2)c1` (stereo partly drawn) [Compound I-294, (2S,3S,4R,5S)-N-(4-{4-chloro-3-[({1-[4-(2-cyclopropoxyphenyl)pyridin-3-yl]cyclopropyl}amino)methyl]phenyl}pentyl)-2,3,4,5,6-pentahydroxy-N-[3-(2-oxopyrrolidin-1-yl)propyl]hexanamide], the EC50 is less than 100 nM.

Turning to `CC(CCCN(C(=O)[C@@H](O)[C@@H](O)[C@H](O)[C@@H](O)CO)C1CCS(=O)(=O)CC1)c1ccc(Cl)c(CNC2(c3cnccc3-c3ccccc3OC3CC3)CC2)c1` (stereo partly drawn) [Compound I-295, (2S,3S,4R,5S)-N-(4-{4-chloro-3-[({1-[4-(2-cyclopropoxyphenyl)pyridin-3-yl]cyclopropyl}amino)methyl]phenyl}pentyl)-N-(1,1-dioxo-1λ^6-thian-4-yl)-2,3,4,5,6-pentahydroxyhexanamide], the EC50 is less than 100 nM.

Take `CCS(=O)(=O)CCN(CCCCC(C)c1ccc(Cl)c(CNC2(c3cnccc3-c3ccccc3OC3CC3)CC2)c1)C(=O)[C@@H](O)[C@@H](O)[C@H](O)[C@@H](O)CO` (stereo partly drawn) [Compound I-296, (2S,3S,4R,5S)-N-(5-{4-chloro-3-[({1-[4-(2-cyclopropoxyphenyl)pyridin-3-yl]cyclopropyl}amino)methyl]phenyl}hexyl)-N-[2-(ethanesulfonyl)ethyl]-2,3,4,5,6-pentahydroxyhexanamide]: the EC50 was less than 100 nM.

As for `CC(CCCN(CCCCNS(C)(=O)=O)C(=O)[C@@H](O)[C@@H](O)[C@H](O)[C@@H](O)CO)c1ccc(Cl)c(CNC2(c3cnccc3-c3ccccc3OC3CC3)CC2)c1` (stereo partly drawn) [Compound I-297, (2S,3S,4R,5S)-N-(4-{4-chloro-3-[({1-[4-(2-cyclopropoxyphenyl)pyridin-3-yl]cyclopropyl}amino)methyl]phenyl}pentyl)-2,3,4,5,6-pentahydroxy-N-(4-methanesulfonamidobutyl) hexanamide], the EC50 was less than 100 nM.

For `CC(CCCN(CCN1CCS(=O)(=O)CC1)C(=O)[C@@H](O)[C@@H](O)[C@H](O)[C@@H](O)CO)c1ccc(Cl)c(CNC2(c3cnccc3-c3ccccc3OC3CC3)CC2)c1` (stereo partly drawn) [Compound I-298, (2S,3S,4R,5S)-N-(4-{4-chloro-3-[({1-[4-(2-cyclopropoxyphenyl)pyridin-3-yl]cyclopropyl}amino)methyl]phenyl}pentyl)-N-[2-(1,1-dioxo-1λ^6,4-thiomorpholin-4-yl)ethyl]-2,3,4,5,6-pentahydroxyhexanamide], the EC50 was less than 100 nM.

Consider `Cc1ccc(C(C)CCCNC(=O)[C@@H](O)[C@@H](O)[C@H](O)[C@@H](O)CO)cc1CNC1(c2cnccc2-c2ccccc2OC2CC2)CC1` (stereo partly drawn) [Compound I-299, (2S,3S,4R,5S)-N-(4-{3-[({1-[4-(2-cyclopropoxyphenyl)pyridin-3-yl]cyclopropyl}amino)methyl]-4-methylphenyl}pentyl)-2,3,4,5,6-pentahydroxyhexanamide], for which the EC50 was less than 100 nM.

As to `Cc1ccc(C(C)CCCCNC(=O)[C@@H](O)[C@@H](O)[C@H](O)[C@@H](O)CO)cc1CNC1(c2cnccc2-c2ccccc2OC2CC2)CC1` (stereo partly drawn) [Compound I-300, (2S,3S,4R,5S)-N-(5-{3-[({1-[4-(2-cyclopropoxyphenyl)pyridin-3-yl]cyclopropyl}amino)methyl]-4-methylphenyl}hexyl)-2,3,4,5,6-pentahydroxyhexanamide], the EC50 was less than 100 nM.

Regarding `Cc1ccc(C(C)CCCN(C)C(=O)[C@@H](O)[C@@H](O)[C@H](O)[C@@H](O)CO)cc1CNC1(c2cnccc2-c2ccccc2OC2CC2)CC1` (stereo partly drawn) [Compound I-301, (2S,3S,4R,5S)-N-(4-{3-[({1-[4-(2-cyclopropoxyphenyl)pyridin-3-yl]cyclopropyl}amino)methyl]-4-methylphenyl}pentyl)-2,3,4,5,6-pentahydroxy-N-methylhexanamide], the EC50 is less than 100 nM.
